# Data as given in ChEMBL document CHEMBL5346941, “Design, synthesis and evaluation of novel monoamine oxidase B (MAO-B) inhibitors with improved pharmacokinetic properties for Parkinson's disease” (Eur J Med Chem, 2023).
# Experiments:
# [1] = target: T1, Amine oxidase [flavin-containing] A (Homo sapiens, UniProt P21397); test: Inhibition of recombinant human MAO-A expressed in Sf9 cells using […] as substrate preincubated for 15 mins followed by substrate addition and measured after 60 mins by luciferin based luminescence analysis
# T1 sequence (P21397 whole entry): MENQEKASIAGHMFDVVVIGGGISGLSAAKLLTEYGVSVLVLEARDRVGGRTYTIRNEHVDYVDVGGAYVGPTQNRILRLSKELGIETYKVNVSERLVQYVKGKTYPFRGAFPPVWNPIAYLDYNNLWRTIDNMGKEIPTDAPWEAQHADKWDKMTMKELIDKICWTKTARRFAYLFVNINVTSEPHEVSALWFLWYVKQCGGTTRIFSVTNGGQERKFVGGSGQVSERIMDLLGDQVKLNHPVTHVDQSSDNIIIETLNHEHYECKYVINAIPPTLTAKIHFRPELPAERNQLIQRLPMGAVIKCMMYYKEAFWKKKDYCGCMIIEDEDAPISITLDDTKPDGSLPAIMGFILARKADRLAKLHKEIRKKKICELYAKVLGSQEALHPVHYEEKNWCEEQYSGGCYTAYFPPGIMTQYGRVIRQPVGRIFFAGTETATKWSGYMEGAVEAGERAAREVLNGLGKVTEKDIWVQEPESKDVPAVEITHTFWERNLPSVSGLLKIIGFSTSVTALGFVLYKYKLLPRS
# [2] = target: T2, Amine oxidase [flavin-containing] B (Homo sapiens, UniProt P27338); test: Inhibition of recombinant human MAO-B expressed in Sf9 cells using p-tyramine as substrate preincubated for 15 mins followed by substrate addition and measured after 60 mins by luciferin based luminescence analysis
# T2 sequence (P27338 whole entry): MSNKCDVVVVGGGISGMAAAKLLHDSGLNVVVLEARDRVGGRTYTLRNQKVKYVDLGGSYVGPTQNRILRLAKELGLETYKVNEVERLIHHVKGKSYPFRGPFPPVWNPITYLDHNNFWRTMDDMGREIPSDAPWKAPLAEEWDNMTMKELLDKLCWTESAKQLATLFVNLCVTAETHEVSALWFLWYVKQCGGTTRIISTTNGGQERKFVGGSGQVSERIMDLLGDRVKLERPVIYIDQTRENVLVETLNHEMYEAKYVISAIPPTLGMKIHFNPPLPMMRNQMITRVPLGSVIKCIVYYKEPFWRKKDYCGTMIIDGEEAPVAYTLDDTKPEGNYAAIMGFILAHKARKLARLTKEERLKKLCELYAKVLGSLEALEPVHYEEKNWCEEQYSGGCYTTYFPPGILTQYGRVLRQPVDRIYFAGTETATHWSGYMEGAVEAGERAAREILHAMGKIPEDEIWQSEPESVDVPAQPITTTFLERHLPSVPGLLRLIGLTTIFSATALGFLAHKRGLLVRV
# [3] = Cmax in fasted Sprague-Dawley rat at 1 mg/kg, iv measured for 24 hrs; format: ADME, organism-based; set-up: dose 1 mg/kg, time 24 hrs, route iv; details: Sprague-Dawley, in vivo, read-out: Cmax
# [4] = AUC (0 to t) in fasted Sprague-Dawley rat at 1 mg/kg, iv measured for 24 hrs; format: ADME, organism-based; set-up: dose 1 mg/kg, time 24 hrs, route iv; details: in vivo
# [5] = Elimination half life in fasted Sprague-Dawley rat at 1 mg/kg, iv measured for 24 hrs; format: ADME, organism-based; details: in vivo, read-out: beta t1/2 (converted)
# [6] = Volume of distribution at steady state in fasted Sprague-Dawley rat at 1 mg/kg, iv measured for 24 hrs; format: ADME, organism-based; details: in vivo, read-out: Vdss
# [7] = Clearance in fasted Sprague-Dawley rat at 1 mg/kg, iv measured for 24 hrs; format: ADME, organism-based; details: in vivo
# [8] = Cmax in fasted Sprague-Dawley rat at 5 mg/kg, IG measured for 24 hrs; format: ADME, organism-based; set-up: dose 5 mg/kg, time 24 hrs, route ig; details: in vivo, po
# [9] = AUC (0 to t) in fasted Sprague-Dawley rat at 5 mg/kg, IG measured for 24 hrs; format: ADME, organism-based; set-up: dose 5 mg/kg, time 24 hrs, route ig; details: in vivo, po
# [10] = Elimination half life in fasted Sprague-Dawley rat at 5 mg/kg, IG measured for 24 hrs; format: ADME, organism-based; details: in vivo, po, read-out: beta t1/2 (converted)
# [11] = Bioavailability in fasted Sprague-Dawley rat at 5 mg/kg, IG measured for 24 hrs; format: ADME, organism-based; details: in vivo, po
Structure (SMILES),IC50 [1] [µM],IC50 [2] [µM],Cmax [3] [ng/mL],AUC(0-t) at 24 h [4] [ng·h/mL],half-life [5] [min],Vd [6] [L/kg],clearance [7] [mL/min/kg],Cmax [8] [ng/mL],AUC(0-t) at 24 h [9] [ng·h/mL],half-life [10] [min],bioavailability [11] [%]
C[C@H](NCc1ccc2oc(-c3ccc(F)cc3)cc2c1)C(N)=O,3.54,0.948,,,,,,,,,
COc1cccc(-c2cc3cc(CN4CC[C@H]4C(N)=O)ccc3o2)c1,> 10,0.103,,,,,,,,,
NC(=O)[C@@H]1C[C@H](F)CN1Cc1ccc2oc(-c3cccc(F)c3)cc2c1,4.89,0.055,237,250,41.2,4.12,66.4,409,1500,133,126
NC(=O)[C@@H]1CCN1Cc1ccc2oc(-c3ccc(F)cc3)cc2c1,> 10,0.038,213,161,28.9,8.53,102,161,623,235,80.9

# More lines, now with the values ahead:
IC50 [1] [µM],IC50 [2] [µM],Cmax [3] [ng/mL],AUC(0-t) at 24 h [4] [ng·h/mL],half-life [5] [min],Vd [6] [L/kg],clearance [7] [mL/min/kg],Cmax [8] [ng/mL],AUC(0-t) at 24 h [9] [ng·h/mL],half-life [10] [min],bioavailability [11] [%],Structure (SMILES)
6.2,5.01,,,,,,,,,,C[C@H](NCc1ccc2oc(-c3ccccc3F)cc2c1)C(N)=O
> 10,1.93,,,,,,,,,,COc1ccccc1-c1cc2cc(CN3CC[C@H]3C(N)=O)ccc2o1
> 10,0.073,360,155,22.4,2.39,106,167,672,69,86.7,NC(=O)[C@@H]1CCN1Cc1ccc2oc(-c3ccccc3F)cc2c1
> 10,7.39,,,,,,,,,,COc1ccc(-c2cc3cc(CN4CC[C@H]4C(N)=O)ccc3o2)cc1
